Legend:
[1] = cited from earlier work
[2] = λmax UV absorbance of free and encapsulated UV filter; assay type: physicochemical; settings: free UV filter in ethanol
Description: λmax UV absorbance of free Uvinul A plus in ethanol was measured at 357 nm and λmax UV absorbance of Uvinul A plus encapsulated PLA-PEG-Mal particles in water was measured at 360 nm.

SMILES | UV filter logP [1] | λmax UV absorbance of free UV filter [2] [nm]
CCCCCCOC(=O)c1ccccc1C(=O)c1ccc(N(CC)CC)cc1O [Uvinul A Plus, diethylamino hydroxybenzoyl hexyl benzoate] | 6.5 | 357
CCCCC(CC)COc1ccc(-c2nc(-c3ccc(OC)cc3)nc(-c3ccc(OCC(CC)CCCC)cc3O)n2)c(O)c1 (centres unmarked) [Bemotrizinol, bis-ethylhexyloxyphenol methoxyphenyl triazine] | 10.4 | 
COc1cc(O)c(C(=O)c2ccccc2)cc1S(=O)(=O)O [Sulisobenzone] | 2.2 | 
CCCCC(CC)COC(=O)C(C#N)=C(c1ccccc1)c1ccccc1 (centres unmarked) [Octocrylene] | 7.1 | 304
CC1CCC(C(C)C)C(OC(=O)c2ccccc2N)C1 (centres unmarked) [Meradimate] | 5.1 | 
CCCCC(CC)COC(=O)c1ccccc1O (centres unmarked) [Octisalate] | 5.7 | 

Reference: patent US20220273530A1, “BIOADHESIVE PARTICLES COMPRISING ACTIVE AGENTS, AND USES THEREOF” (SKINOSIVE, priority 2019, published 2022)
